tested on: HCT116 colorectal cancer cells; assay: Cisplatin sensitization assay (96 h cell viability MTS); type: cell-based; conditions: 96 h MTS, compound plus Cisplatin;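 further: compound concentration needed to lower the Cisplatin-alone IC50 by a set fold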
Summary of the method: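 HCT116 cells were co-treated with compound and cisplatin, each in 2-fold serial dilutions from a 10 μM top final concentration, as a full matrix. After 96 h at 37 °C, 5% CO2, viability was read by MTS following a 1 h incubation with reagent.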

| Structure (SMILES) | Cisplatin Sensitization Assay |
| --- | --- |
| CC(=O)N1CC2(CCN(c3ccncc3NC(=O)c3c(N)nn4cc(F)cnc34)CC2)C1 [I-N-251, N-(4-(2-acetyl-2,7-diazaspiro[3.5]nonan-7-yl)pyridin-3-yl)-2-amino-6-fluoropyrazolo[1,5-a]pyrimidine-3-carboxamide] | +++ (Compounds with a Cisplatin sensitization value of <0.02 μM are marked with “+++.”) |
| Nc1nn2cc(F)cnc2c1C(=O)Nc1cncc(Cl)c1N1CCC(C(=O)N2CCN3CCC2CC3)CC1 [I-G-66, N-(4-(4-(1,4-diazabicyclo[3.2.2]nonane-4-carbonyl)piperidin-1-yl)-5-chloropyridin-3-yl)-2-amino-6-fluoropyrazolo[1,5-a]pyrimidine-3-carboxamide] | +++ (Compounds with a Cisplatin sensitization value of <0.02 μM are marked with “+++.”) |
| CN(C)[C@H]1CCN(c2ccncc2NC(=O)c2c(N)nn3cc(Cl)cnc23)C[C@@H]1O [I-N-35, 2-amino-6-chloro-N-(4-((3S,4S)-4-(dimethylamino)-3-hydroxypiperidin-1-yl)pyridin-3-yl)pyrazolo[1,5-a]pyrimidine-3-carboxamide] | + (Compounds with a Cisplatin sensitization value >0.2 μM but <5 μM are marked with “+.”) |
| CN(C)CC(=O)N1CCN(c2c(F)cncc2NC(=O)c2c(N)nn3cc(F)cnc23)CC1 [I-N-153, 2-amino-N-(4-(4-(2-(dimethylamino)acetyl)piperazin-1-yl)-5-fluoropyridin-3-yl)-6-fluoropyrazolo[1,5-a]pyrimidine-3-carboxamide] | ++ (Compounds with a Cisplatin sensitization value >0.02 μM but <0.2 μM are marked with “++.”) |
| CN1CCC(NC(=O)C2CCN(c3c(F)cncc3NC(=O)c3c(N)nn4cc(F)cnc34)CC2)CC1 [I-G-20, 2-amino-6-fluoro-N-(5-fluoro-4-(4-((1-methylpiperidin-4-yl)carbamoyl)piperidin-1-yl)pyridin-3-yl)pyrazolo[1,5-a]pyrimidine-3-carboxamide] | + (Compounds with a Cisplatin sensitization value >0.2 μM but <5 μM are marked with “+.”) |
| CN1CCN(c2ccncc2NC(=O)c2c(N)nn3cc(Cl)cnc23)CC1(C)C [I-N-53, 2-amino-6-chloro-N-(4-(3,3,4-trimethylpiperazin-1-yl)pyridin-3-yl)pyrazolo[1,5-a]pyrimidine-3-carboxamide] | ++ (Compounds with a Cisplatin sensitization value >0.02 μM but <0.2 μM are marked with “++.”) |
| N#CCc1cnc2c(C(=O)Nc3cnccc3OCCO)c(N)nn2c1 [I-O-33, 2-amino-6-(cyanomethyl)-N-(4-(2-hydroxyethoxy)pyridin-3-yl)pyrazolo[1,5-a]pyrimidine-3-carboxamide] | ++ (Compounds with a Cisplatin sensitization value >0.02 μM but <0.2 μM are marked with “++.”) |
| Cc1ccnn1-c1ccncc1NC(=O)c1c(N)nn2cc(F)cnc12 [I-N-223, 2-amino-6-fluoro-N-(4-(5-methyl-1H-pyrazol-1-yl)pyridin-3-yl)pyrazolo[1,5-a]pyrimidine-3-carboxamide] | ++ (Compounds with a Cisplatin sensitization value >0.02 μM but <0.2 μM are marked with “++.”) |
| Nc1nn2cc(F)cnc2c1C(=O)Nc1cnccc1N1CCC(c2nnco2)CC1 [I-N-268, N-(4-(4-(1,3,4-oxadiazol-2-yl)piperidin-1-yl)pyridin-3-yl)-2-amino-6-fluoropyrazolo[1,5-a]pyrimidine-3-carboxamide] | +++ (Compounds with a Cisplatin sensitization value of <0.02 μM are marked with “+++.”) |
| Nc1nn2cc(F)cnc2c1C(=O)Nc1cncc(F)c1N1CCN2C(=O)CCC[C@H]2C1 [I-N-279, (S)-2-amino-6-fluoro-N-(5-fluoro-4-(6-oxohexahydro-1H-pyrido[1,2-a]pyrazin-2(6H)-yl)pyridin-3-yl)pyrazolo[1,5-a]pyrimidine-3-carboxamide] | +++ (Compounds with a Cisplatin sensitization value of <0.02 μM are marked with “+++.”) |
| CN1CCN(c2c(F)cncc2NC(=O)c2c(N)nn3cc(F)cnc23)CC1=O [I-N-212, 2-amino-6-fluoro-N-(5-fluoro-4-(4-methyl-3-oxopiperazin-1-yl)pyridin-3-yl)pyrazolo[1,5-a]pyrimidine-3-carboxamide] | +++ (Compounds with a Cisplatin sensitization value of <0.02 μM are marked with “+++.”) |
| CN1CCOC2(CCN(c3ccncc3NC(=O)c3c(N)nn4cc(F)cnc34)CC2)C1 [I-N-183, 2-amino-6-fluoro-N-(4-(4-methyl-1-oxa-4,9-diazaspiro[5.5]undecan-9-yl)pyridin-3-yl)pyrazolo[1,5-a]pyrimidine-3-carboxamide] | +++ (Compounds with a Cisplatin sensitization value of <0.02 μM are marked with “+++.”) |
| Cc1ncccc1-c1ccncc1NC(=O)c1c(N)nn2cc(F)cnc12 [I-C-20, 2-amino-6-fluoro-N-(2-methyl-[3,4′-bipyridin]-3′-yl)pyrazolo[1,5-a]pyrimidine-3-carboxamide] | +++ (Compounds with a Cisplatin sensitization value of <0.02 μM are marked with “+++.”) |
| CN1CC(NC(=O)C2CCN(c3c(F)cncc3NC(=O)c3c(N)nn4cc(F)cnc34)CC2)C1 [I-G-23, 2-amino-6-fluoro-N-(5-fluoro-4-(4-((1-methylazetidin-3-yl)carbamoyl)piperidin-1-yl)pyridin-3-yl)pyrazolo[1,5-a]pyrimidine-3-carboxamide] | +++ (Compounds with a Cisplatin sensitization value of <0.02 μM are marked with “+++.”) |
| Nc1nn2cc(F)cnc2c1C(=O)Nc1cnccc1N1CCN(S(=O)(=O)C2CCOCC2)CC1 [I-N-177, 2-amino-6-fluoro-N-(4-(4-((tetrahydro-2H-pyran-4-yl)sulfonyl)piperazin-1-yl)pyridin-3-yl)pyrazolo[1,5-a]pyrimidine-3-carboxamide] | +++ (Compounds with a Cisplatin sensitization value of <0.02 μM are marked with “+++.”) |
| CN1CCC(OC2CCN(c3ccncc3NC(=O)c3c(N)nn4cc(F)cnc34)CC2)CC1 [I-N-154, 2-amino-6-fluoro-N-(4-(4-((1-methylpiperidin-4-yl)oxy)piperidin-1-yl)pyridin-3-yl)pyrazolo[1,5-a]pyrimidine-3-carboxamide] | +++ (Compounds with a Cisplatin sensitization value of <0.02 μM are marked with “+++.”) |
| Nc1nn2cc(F)cnc2c1C(=O)Nc1cncc(F)c1N1CCN2C(=O)OC[C@@H]2C1 [I-N-248, (S)-2-amino-6-fluoro-N-(5-fluoro-4-(3-oxotetrahydro-1H-oxazolo[3,4-a]pyrazin-7(3H)-yl)pyridin-3-yl)pyrazolo[1,5-a]pyrimidine-3-carboxamide] | ++ (Compounds with a Cisplatin sensitization value >0.02 μM but <0.2 μM are marked with “++.”) |
| Nc1nn2cc(F)cnc2c1C(=O)Nc1cnccc1N1CCN2C(=O)CC[C@H]2C1 [I-N-217, (S)-2-amino-6-fluoro-N-(4-(6-oxohexahydropyrrolo[1,2-a]pyrazin-2(1H)-yl)pyridin-3-yl)pyrazolo[1,5-a]pyrimidine-3-carboxamide] | ++ (Compounds with a Cisplatin sensitization value >0.02 μM but <0.2 μM are marked with “++.”) |
| CN1CCN(c2cc(Cl)ncc2NC(=O)c2c(N)nn3cc(Cl)cnc23)CC1 [I-N-52, 2-amino-6-chloro-N-(6-chloro-4-(4-methylpiperazin-1-yl)pyridin-3-yl)pyrazolo[1,5-a]pyrimidine-3-carboxamide] | ++ (Compounds with a Cisplatin sensitization value >0.02 μM but <0.2 μM are marked with “++.”) |
| CC(=O)N1CCC2(CCN(c3ccncc3NC(=O)c3c(N)nn4cc(F)cnc34)CC2)C1 [I-N-257, N-(4-(2-acetyl-2,8-diazaspiro[4.5]decan-8-yl)pyridin-3-yl)-2-amino-6-fluoropyrazolo[1,5-a]pyrimidine-3-carboxamide] | +++ (Compounds with a Cisplatin sensitization value of <0.02 μM are marked with “+++.”) |
| CN1CCC[C@H]1COc1ccncc1NC(=O)c1c(N)nn2cc(Cl)cnc12 [I-O-50, (S)-2-amino-6-chloro-N-(4-((1-methylpyrrolidin-2-yl)methoxy)pyridin-3-yl)pyrazolo[1,5-a]pyrimidine-3-carboxamide] | + (Compounds with a Cisplatin sensitization value >0.2 μM but <5 μM are marked with “+.”) |
| Nc1nn2cc(F)cnc2c1C(=O)Nc1cncc(F)c1N1CCC(C(=O)N2CCC(N3CCC3)CC2)CC1 [I-G-68, 2-amino-N-(4-(4-(4-(azetidin-1-yl)piperidine-1-carbonyl)piperidin-1-yl)-5-fluoropyridin-3-yl)-6-fluoropyrazolo[1,5-a]pyrimidine-3-carboxamide] | +++ (Compounds with a Cisplatin sensitization value of <0.02 μM are marked with “+++.”) |
| CN1CCC(c2ccncc2NC(=O)c2c(N)nn3cc(F)cnc23)CC1=O (centres unmarked) [I-C-73, 2-amino-6-fluoro-N-(4-(1-methyl-2-oxopiperidin-4-yl)pyridin-3-yl)pyrazolo[1,5-a]pyrimidine-3-carboxamide] | ++ (Compounds with a Cisplatin sensitization value >0.02 μM but <0.2 μM are marked with “++.”) |
| Cc1ncnn1-c1c(F)cncc1NC(=O)c1c(N)nn2cc(F)cnc12 [I-N-242, 2-amino-6-fluoro-N-(5-fluoro-4-(5-methyl-1H-1,2,4-triazol-1-yl)pyridin-3-yl)pyrazolo[1,5-a]pyrimidine-3-carboxamide] | + (Compounds with a Cisplatin sensitization value >0.2 μM but <5 μM are marked with “+.”) |
| Nc1nn2cc(Cl)cnc2c1C(=O)Nc1cnccc1N1CCC(N2CCn3cncc3C2)CC1 [I-N-101, 2-amino-6-chloro-N-(4-(4-(5,6-dihydroimidazo[1,5-a]pyrazin-7(8H)-yl)piperidin-1-yl)pyridin-3-yl)pyrazolo[1,5-a]pyrimidine-3-carboxamide] | ++ (Compounds with a Cisplatin sensitization value >0.02 μM but <0.2 μM are marked with “++.”) |
| Nc1nn2cc(F)cnc2c1C(=O)Nc1cncc(F)c1N1CCC(S(=O)(=O)N2CCOCC2)CC1 [I-N-155, 2-amino-6-fluoro-N-(5-fluoro-4-(4-(morpholinosulfonyl)piperidin-1-yl)pyridin-3-yl)pyrazolo[1,5-a]pyrimidine-3-carboxamide] | +++ (Compounds with a Cisplatin sensitization value of <0.02 μM are marked with “+++.”) |

Reference: patent US10787452B2 (Vertex Pharmaceuticals Incorporated, priority 2012, dated 2020)
